Laboratory results: paper PMC7315563, “Bioactive fluorenes. Part III: 2,7-dichloro-9H-fluorene-based thiazolidinone and azetidinone analogues as anticancer and antimicrobial against multidrug resistant strains agents” (BMC Chemistry, 2020)
Values after ≈ are worked out from the molar mass of the structure shown.

Experiments:
[1] = test system: MDA-MB-231 human breast cancer cells; assay: cell viability assay (MTT); format: cell-based; conditions: 24 h; for viability at 1 µg/mL: read-out: Validity (%) for sample concentrations (µg/mL) 1; for viability at 10 µg/mL: read-out: Validity (%) for sample concentrations (µg/mL) 10; for viability at 31.25 µg/mL: read-out: Validity (%) for sample concentrations (µg/mL) 31.25; for viability at 62.5 µg/mL: read-out: Validity (%) for sample concentrations (µg/mL) 62.5; for viability at 125 µg/mL: read-out: Validity (%) for sample concentrations (µg/mL) 125; for viability at 250 µg/mL: read-out: Validity (%) for sample concentrations (µg/mL) 250; for viability at 500 µg/mL: read-out: Validity (%) for sample concentrations (µg/mL) 500
Outline: (§1)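 Cells were grown in RPMI-1640 with 10% heat-inactivated FBS, seeded at 5000 cells/well, and next day exposed to fluorene derivatives at 0, 1, 10, 31.25, 62.5, 125, 250 or 500 µg/mL for 24 h. Viability was then measured by MTT, absorbance at 570 nm.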

[2] = test system: WI-38 human normal fibroblast cells; assay: cell viability assay (MTT); format: cell-based; conditions: 24 h; for viability at 31.25 µg/mL: read-out: Validity (%) for sample concentrations (µg/mL) 31.25; for viability at 62.5 µg/mL: 62.50 µg/mL, read-out: Validity (%) for sample concentrations (µg/mL) 62.50; for viability at 125 µg/mL: read-out: Validity (%) for sample concentrations (µg/mL) 125; for viability at 250 µg/mL: read-out: Validity (%) for sample concentrations (µg/mL) 250; for viability at 500 µg/mL: read-out: Validity (%) for sample concentrations (µg/mL) 500
Outline: as §1

S. aureus = assay: MIC by broth microdilution method (resazurin end point); format: cell-based; conditions: Staphylococcus aureus; S. aureus; 24 h at 37 °C; read-out: MIC
Protocol: (§2) Determination of Minimum inhibitory concentrations (MIC) of flourene derivatives was done using broth microdilution method. The procedure involved preparation of twofold dilutions of the fluorene derivatives ranging from (500–7.8 μg/mL) in sterile Mueller–Hinton broth inside the wells of 96-well microplate (Sarstedt, Germany). The inoculums of test strains prepared from fresh overnight cultures were adjusted to 0.5 McFarland standards, which equals to 1–2 × 10^8 CFU/mL for bacteria, the procedure was done according to CLSI 2012 [42]. […] For this assay the positive control agents were vancomycin (range: 0.7–50 μg/mL), gentamicin (range: 0.15–10 μg/mL) and the negative control was 1% DMSO.
(§3) For proper determination of the MIC end point resazurin dye has been used. A stock solution of resazurin sodium salt powder (Titan Biotech) was prepared at 0.02% (wt/vol) in distilled water, sterilized by filtration through a […] filter into a sterile light protected container then stored protected from light at 4 °C for up to 1 week, or at − […] for long term use, then 10–15% resazurin solution of the total volume in wells was added to each well and incubation for 1–4 h at 37 °C was done. A change in color from blue to pink indicates the growth of bacteria, and MIC was defined as the lowest concentration of the drug that prevented this change in color.

[3] = test system: A549 human lung cancer cells; assay: cell viability assay (MTT); format: cell-based; conditions: 24 h; for viability at 1 µg/mL: read-out: Validity (%) for sample concentrations (µg/mL) 1; for viability at 10 µg/mL: read-out: Validity (%) for sample concentrations (µg/mL) 10; for viability at 31.25 µg/mL: read-out: Validity (%) for sample concentrations (µg/mL) 31.25; for viability at 62.5 µg/mL: 62.50 µg/mL, read-out: Validity (%) for sample concentrations (µg/mL) 62.50; for viability at 125 µg/mL: read-out: Validity (%) for sample concentrations (µg/mL) 125; for viability at 250 µg/mL: read-out: Validity (%) for sample concentrations (µg/mL) 250; for viability at 500 µg/mL: read-out: Validity (%) for sample concentrations (µg/mL) 500; for viability at 1000 µg/mL: read-out: Validity (%) for sample concentrations (µg/mL) 1000
[4] = test system: Staphylococcus aureus (S. aureus), multidrug resistant clinical isolate; assay: agar well diffusion assay; format: cell-based; conditions: Staphylococcus aureus; S. aureus; 500 µg/mL of tested compound; 24 h
Outline: (§4)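 Multidrug-resistant clinical isolates swabbed on Mueller–Hinton agar at about 1–5 × 10^5 CFU/mL; 0.5 cm wells received 50 μL compound at 500 μg/mL in 1% DMSO. Incubation 24 h, 37 °C for bacteria and C. albicans, 25 °C for Aspergillus; inhibition zone diameter measured in mm.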

E. coli = assay: MIC by broth microdilution method (resazurin end point); format: cell-based; conditions: Escherichia coli, 24 h at 37 °C
Protocol: as §2, §3

[5] = test system: Klebsiella pneumoniae (K. pneumoniae), multidrug resistant clinical isolate; assay: agar well diffusion assay; format: cell-based; conditions: 24 h, 500 µg/mL of tested compound
Outline: as §4

[6] = test system: methicillin-resistant Staphylococcus aureus (MRSA); assay: agar well diffusion assay; format: cell-based; conditions: Staphylococcus aureus, 500 µg/mL of tested compound, 24 h
Outline: as §4

[7] = test system: Escherichia coli (E. coli), multidrug resistant clinical isolate; assay: agar well diffusion assay; format: cell-based; conditions: 24 h, 500 µg/mL of tested compound
Outline: as §4

P. aeruginosa = assay: MIC by broth microdilution method (resazurin end point); format: cell-based; conditions: Pseudomonas aeruginosa, 24 h at 37 °C
Protocol: as §2, §3

[8] = test system: Pseudomonas aeruginosa (P. aeruginosa), multidrug resistant clinical isolate; assay: agar well diffusion assay; format: cell-based; conditions: 24 h, 500 µg/mL of tested compound
Outline: as §4

[9] = test system: Acinetobacter baumannii (A. baumannii), multidrug resistant clinical isolate; assay: agar well diffusion assay; format: cell-based; conditions: 500 µg/mL of tested compound, 24 h
Outline: as §4

IC50 [1] [µg/mL] | Compound | viability at 1 µg/mL [1] [%] | viability at 10 µg/mL [1] [%] | viability at 31.25 µg/mL [1] [%] | viability at 62.5 µg/mL [1] [%] | viability at 125 µg/mL [1] [%] | viability at 250 µg/mL [1] [%] | viability at 500 µg/mL [1] [%] | viability at 31.25 µg/mL [2] [%] | viability at 62.5 µg/mL [2] [%] | viability at 125 µg/mL [2] [%] | viability at 250 µg/mL [2] [%] | viability at 500 µg/mL [2] [%] | IC50 [2] [µg/mL] | viability at 1 µg/mL [3] [%] | viability at 10 µg/mL [3] [%] | viability at 31.25 µg/mL [3] [%] | viability at 62.5 µg/mL [3] [%] | viability at 125 µg/mL [3] [%] | viability at 250 µg/mL [3] [%] | other results
215 (≈ 397 µM) | CN(C)c1ccc(C2C(Cl)C(=O)N2c2nc(-c3cc(Cl)cc4c3-c3ccc(Cl)cc3C4)cs2)cc1 (centres unmarked) [6e, 3-Chloro-1-(4-(2,7-dichloro-9H-fluoren-4-yl)thiazol-2-yl)-4-(4-(dimethylamino)phenyl)-azetidin-2-one] | 98.2 | 90.2 | 89.9 | 85.2 | 69.2 | 41.9 | 39.4 | 68.8 | 52.5 | 45.6 | 38.6 | 26.8 | 65.4 (≈ 121 µM) | 95.4 | 90.3 | 87.5 | 81.7 | 71.1 | 50.7 | MIC (S. aureus): 62.5 µg/mL (≈ 116 µM); viability at 500 µg/mL [3]: 33.2%; viability at 1000 µg/mL [3]: 28.8%; IC50 [3]: 276 µg/mL (≈ 510 µM); melting point: 110 to 111 °C; zone of inhibition at 500 µg/mL [4]: 12 mm
> 500 | O=C1C(Cl)C(c2ccncc2)N1c1nc(-c2cc(Cl)cc3c2-c2ccc(Cl)cc2C3)cs1 (centres unmarked) [6m, 3-Chloro-1-(4-(2,7-dichloro-9H-fluoren-4-yl)thiazol-2-yl)-4-(pyridin-4-yl)azetidin-2-one] | 93.2 | 89.9 | 77.6 | 73.2 | 67.1 | 63.4 | 59.5 | 78.5 | 72.8 | 68.5 | 63 | 55.7 | > 500 | 91.5 | 81.8 | 67.6 | 65.9 | 62.7 | 58.7 | MIC (E. coli): 15.6 µg/mL (≈ 31.3 µM); viability at 500 µg/mL [3]: 54.1%; viability at 1000 µg/mL [3]: 49.8%; IC50 [3]: 830 µg/mL (≈ 1660 µM); melting point: 249 to 250 °C; zone of inhibition at 500 µg/mL [5]: 3 mm; zone of inhibition at 500 µg/mL [6]: 6 mm; zone of inhibition at 500 µg/mL [4]: 4 mm; zone of inhibition at 500 µg/mL [7]: 27 mm
> 500 | COc1cc(C2SCC(=O)N2c2nc(-c3cc(Cl)cc4c3-c3ccc(Cl)cc3C4)cs2)ccc1O (centres unmarked) [5h, 3-(4-(2,7-Dichloro-9H-fluoren-4-yl)thiazol-2-yl)-2-(4-hydroxy-3-methoxyphenyl)thiazolidin-4-one] | 90.9 | 82.8 | 79.3 | 76.8 | 71.7 | 61.7 | 56.7 | 95 | 81.7 | 78.7 | 72.8 | 66.2 | > 500 | 92.9 | 91.4 | 90.3 | 88.7 | 85.7 | 82.7 | MIC (S. aureus): 62.5 µg/mL (≈ 115 µM); viability at 500 µg/mL [3]: 77.2%; viability at 1000 µg/mL [3]: 68%; IC50 [3]: 1610 µg/mL (≈ 2970 µM); melting point: 85 to 87 °C; zone of inhibition at 500 µg/mL [4]: 11 mm
435 (≈ 896 µM) | O=C1CSC(c2ccco2)N1c1nc(-c2cc(Cl)cc3c2-c2ccc(Cl)cc2C3)cs1 (centres unmarked) [5j, 3-(4-(2,7-Dichloro-9H-fluoren-4-yl)thiazol-2-yl)-2-(furan-2-yl)thiazolidin-4-one] | 94.4 | 74.8 | 67 | 61.4 | 60.2 | 57.2 | 49.3 | 84.2 | 66.1 | 61.5 | 39.1 | 38.5 | 196 (≈ 404 µM) | 92.9 | 84.6 | 83.6 | 82.5 | 81.6 | 77.5 | MIC (E. coli): 62.5 µg/mL (≈ 129 µM); MIC (P. aeruginosa): 62.5 µg/mL (≈ 129 µM); viability at 500 µg/mL [3]: 71.4%; viability at 1000 µg/mL [3]: 52.5%; IC50 [3]: 1050 µg/mL (≈ 2150 µM); melting point: 139 to 141 °C; zone of inhibition at 500 µg/mL [4]: 6 mm; zone of inhibition at 500 µg/mL [8]: 8 mm; zone of inhibition at 500 µg/mL [7]: 10 mm
188 (≈ 346 µM) | O=C1C(Cl)C(c2ccc([N+](=O)[O-])cc2)N1c1nc(-c2cc(Cl)cc3c2-c2ccc(Cl)cc2C3)cs1 (centres unmarked) [6f, 3-Chloro-1-(4-(2,7-dichloro-9H-fluoren-4-yl)thiazol-2-yl)-4-(4-nitrophenyl)azetidin-2-one] | 91.8 | 89.6 | 83 | 72.4 | 59.7 | 37.2 | 28.9 | 49 | 44.8 | 35.6 | 32.3 | 30.4 | 29 (≈ 53.4 µM) | 91.3 | 89.8 | 86.2 | 83.2 | 67.3 | 46.6 | viability at 500 µg/mL [3]: 38.6%; viability at 1000 µg/mL [3]: 25.4%; IC50 [3]: 230 µg/mL (≈ 424 µM); melting point: 114 to 116 °C; zone of inhibition at 500 µg/mL [9]: 5 mm; zone of inhibition at 500 µg/mL [4]: 10 mm
508 (≈ 1040 µM) | O=C1C(Cl)C(c2ccco2)N1c1nc(-c2cc(Cl)cc3c2-c2ccc(Cl)cc2C3)cs1 (centres unmarked) [6j, 3-Chloro-1-(4-(2,7-dichloro-9H-fluoren-4-yl)thiazol-2-yl)-4-(furan-2-yl)azetidin-2-one] | 96.3 | 92.9 | 75.6 | 73.1 | 69 | 53.2 | 50.6 | 87.3 | 81.4 | 66.3 | 60.9 | 37.2 | 356 (≈ 730 µM) | 95.6 | 87.8 | 76.6 | 68.2 | 54 | 31.3 | MIC (E. coli): 31.2 µg/mL (≈ 64.1 µM); viability at 500 µg/mL [3]: 29.2%; viability at 1000 µg/mL [3]: 28.3%; IC50 [3]: 175 µg/mL (≈ 359 µM); melting point: 95 to 98 °C; zone of inhibition at 500 µg/mL [9]: 6 mm; zone of inhibition at 500 µg/mL [4]: 9 mm; zone of inhibition at 500 µg/mL [7]: 20 mm
